Read-outs that look alike come from different tables or passages of the source. Values belong to the compound of their own block, whether it stands above or below them.
Tests used:
CYP26A1 = molecular target: T1, CYP26A1 (Homo sapiens, UniProt O43174); test: Inhibition of CYP26A1-catalyzed tazarotenic acid sulfoxide formation; type: biochemical
T1 sequence (O43174 1-497): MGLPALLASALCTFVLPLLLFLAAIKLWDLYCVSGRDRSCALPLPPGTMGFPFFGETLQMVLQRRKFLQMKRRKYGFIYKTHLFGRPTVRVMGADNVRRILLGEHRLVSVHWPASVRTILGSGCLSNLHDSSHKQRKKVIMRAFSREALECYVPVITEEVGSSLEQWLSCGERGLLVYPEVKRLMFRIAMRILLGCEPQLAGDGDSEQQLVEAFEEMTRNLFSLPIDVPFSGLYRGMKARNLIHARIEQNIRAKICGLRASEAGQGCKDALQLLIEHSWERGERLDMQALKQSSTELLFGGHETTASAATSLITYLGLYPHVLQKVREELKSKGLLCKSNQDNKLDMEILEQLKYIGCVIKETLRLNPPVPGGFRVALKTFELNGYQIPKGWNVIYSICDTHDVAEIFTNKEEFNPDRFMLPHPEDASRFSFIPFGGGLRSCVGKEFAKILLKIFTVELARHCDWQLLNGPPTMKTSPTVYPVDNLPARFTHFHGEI

CYP26B1 = molecular target: T2, CYP26B1 (Homo sapiens, UniProt Q9NR63); test: Inhibition of CYP26B1-catalyzed tazarotenic acid sulfoxide formation; type: biochemical; conditions: recombinant CYP26B1, probe tazarotenic acid sulfoxide formation, ± standard error
T2 sequence (Q9NR63 1-512): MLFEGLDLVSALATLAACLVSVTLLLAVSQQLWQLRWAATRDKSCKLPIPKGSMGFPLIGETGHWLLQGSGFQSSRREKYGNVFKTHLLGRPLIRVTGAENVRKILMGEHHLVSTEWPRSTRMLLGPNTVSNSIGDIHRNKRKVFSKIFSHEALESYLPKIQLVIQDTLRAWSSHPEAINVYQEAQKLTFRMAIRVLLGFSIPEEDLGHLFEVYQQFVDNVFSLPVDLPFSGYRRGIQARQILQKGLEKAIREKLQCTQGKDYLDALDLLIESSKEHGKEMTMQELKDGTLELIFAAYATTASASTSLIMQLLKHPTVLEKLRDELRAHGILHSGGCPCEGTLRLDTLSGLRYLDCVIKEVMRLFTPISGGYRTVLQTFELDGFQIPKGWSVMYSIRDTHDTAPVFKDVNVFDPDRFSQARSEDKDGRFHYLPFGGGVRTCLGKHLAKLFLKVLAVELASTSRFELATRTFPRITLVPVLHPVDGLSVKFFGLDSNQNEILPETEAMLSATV

[1] = human, in vivo
CYP2C8 = molecular target: T3, CYP2C8 (Homo sapiens, UniProt P10632); conditions: read-out: CYP2C8 IC50, cited from earlier work
T3 sequence (P10632 1-490): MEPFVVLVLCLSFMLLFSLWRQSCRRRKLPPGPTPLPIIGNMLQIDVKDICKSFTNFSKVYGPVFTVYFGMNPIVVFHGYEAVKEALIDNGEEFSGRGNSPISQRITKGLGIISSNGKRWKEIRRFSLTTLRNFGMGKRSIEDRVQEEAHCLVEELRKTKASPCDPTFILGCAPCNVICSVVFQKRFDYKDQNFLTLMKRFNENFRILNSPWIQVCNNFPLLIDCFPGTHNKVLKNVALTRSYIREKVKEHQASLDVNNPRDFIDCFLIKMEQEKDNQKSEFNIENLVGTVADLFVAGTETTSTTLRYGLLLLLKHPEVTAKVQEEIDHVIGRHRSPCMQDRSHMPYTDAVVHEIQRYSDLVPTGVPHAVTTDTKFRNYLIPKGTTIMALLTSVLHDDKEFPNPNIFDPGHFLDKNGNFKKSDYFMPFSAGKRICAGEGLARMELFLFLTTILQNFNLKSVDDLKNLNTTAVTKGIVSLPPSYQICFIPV

[2] = total plasma, clinically relevant dose as in column Oral Dose; ref [64]–[73]; cited from earlier work
[3] = unbound fraction in plasma; ref [64]–[73]; cited from earlier work
[4] = read-out: CYP26A1 IC50, tazarotenic acid, recombinant CYP26A1, probe tazarotenic acid sulfoxide formation, ± standard error
[5] = read-out: CYP26B1 IC50, tazarotenic acid
[6] = substrate amodiaquine, ref [51]
[7] = substrate montelukast (HLM), ref [44]
[8] = CYP26A1 IC50, tazarotenic acid, recombinant CYP26A1, probe tazarotenic acid sulfoxide formation, ± standard error

SMILES: C#C[C@]1(O)CC[C@H]2[C@@H]3CCc4cc(O)ccc4[C@H]3CC[C@@]21C [17α-Ethynylestradiol]
IC50 (CYP26A1; [4]): 2240 ± 1330 nM | IC50 (CYP26B1; [5]): 6730 ± 3770 nM | Cmax,u [1]: 0.00085 nM | IC50 (CYP2C8; [6]): 6540 ± 1220 nM | Cmax [2]: 0.5 nM | fu,plasma [3]: 0.002

SMILES: CCc1oc2ccccc2c1C(=O)c1cc(Br)c(O)c(Br)c1 [Benzbromarone]
IC50 (CYP26A1): 630 ± 60 nM | IC50 (CYP26B1; CYP26B1 IC50, tazarotenic acid): 7570 ± 4930 nM | Cmax,u [1]: 92.4 nM | IC50 (CYP2C8; [7]): 380 nM | Cmax [2]: 9240 nM | fu,plasma [3]: 0.010

SMILES: C=C(c1ccc(C(=O)O)cc1)c1cc2c(cc1C)C(C)(C)CCC2(C)C [Bexarotene]
IC50 (CYP26A1): 1310 ± 480 nM | IC50 (CYP26B1; CYP26B1 IC50, tazarotenic acid): 1600 ± 270 nM

SMILES: O=C(O)c1ccc2cc(-c3ccc(O)c(C45CC6CC(CC(C6)C4)C5)c3)ccc2c1 [CD437]
IC50 (CYP26A1; [4]): 10 ± 10 nM | IC50 (CYP26B1; [5]): 140 ± 50 nM

SMILES: CCOc1nc2cccc(C(=O)O)c2n1Cc1ccc(-c2ccccc2-c2nnn[nH]2)cc1 [Candesartan]
IC50 (CYP26A1; [8]): 25600 ± 25800 nM | IC50 (CYP26B1; CYP26B1 IC50, tazarotenic acid): 58300 nM | Cmax,u [1]: 0.38 nM | IC50 (CYP2C8; [6]): 36200 ± 1700 nM | Cmax [2]: 270 nM

SMILES: CCC(C)n1ncn(-c2ccc(N3CCN(c4ccc(OCC5COC(Cn6cncn6)(c6ccc(Cl)cc6Cl)O5)cc4)CC3)cc2)c1=O (stereo not drawn) [Itraconazole]
IC50 (CYP26A1; [8]): 550 ± 90 nM | IC50 (CYP26B1; CYP26B1 IC50, tazarotenic acid): 160 ± 20 nM | Cmax,u [1]: 1.80 nM | IC50 (CYP2C8; substrate paclitaxel, ref Unpublished Data): 2160 ± 410 nM | Cmax [2]: 919 nM

SMILES: Clc1cccc(C(c2ccc3[nH]cnc3c2)n2ccnc2)c1 (stereo not drawn) [Liarazole]
IC50 (CYP26B1; [5]): 10 ± 10 nM

SMILES: CC1(C)CCC(C)(C)c2cc(C3(c4ccc5cc(C(=O)O)ccc5c4)SCCS3)ccc21 [MM11253]
IC50 (CYP26A1; [4]): 20 ± 10 nM | IC50 (CYP26B1; [5]): 1250 ± 440 nM

SMILES: C[C@@H]1C[C@H]2[C@@H]3CCC4=CC(=O)C=C[C@]4(C)[C@@]3(Cl)[C@@H](O)C[C@]2(C)[C@@]1(O)C(=O)CCl [Mometasone]
IC50 (CYP26A1; [4]): 900 ± 80 nM | IC50 (CYP26B1; [5]): 6810 ± 1190 nM | Cmax,u [1]: 0.0005 nM | IC50 (CYP2C8; [6]): 813 ± 112 nM | Cmax [2]: 0.05 nM | fu,plasma [3]: 0.010

SMILES: CC(C)(O)c1ccccc1CC[C@@H](SCC1(CC(=O)O)CC1)c1cccc(/C=C/c2ccc3ccc(Cl)cc3n2)c1 [Montelukast]
IC50 (CYP26A1; [8]): 120 ± 20 nM | IC50 (CYP26B1; CYP26B1 IC50, tazarotenic acid): 610 ± 90 nM | Cmax,u [1]: 8.90 nM | Cmax [2]: 925 nM

SMILES: CCc1ccc(CCOc2ccc(CC3SC(=O)NC3=O)cc2)nc1 (stereo not drawn) [Pioglitazone]
IC50 (CYP26A1; [8]): 930 ± 260 nM | IC50 (CYP26B1; CYP26B1 IC50, tazarotenic acid): 8480 ± 1190 nM | Cmax,u [1]: 38.0 nM | IC50 (CYP2C8; [6]): 11700 ± 4000 nM | Cmax [2]: 4490 nM

SMILES: O=C(c1ccc(OCCN2CCCCC2)cc1)c1c(-c2ccc(O)cc2)sc2cc(O)ccc12 [Raloxifene]
IC50 (CYP26A1; [8]): 1780 ± 770 nM | IC50 (CYP26B1; CYP26B1 IC50, tazarotenic acid): 3280 ± 1150 nM | Cmax,u [1]: 0.50 nM | IC50 (CYP2C8; [6]): 2150 ± 900 nM | Cmax [2]: 1.05 nM | fu,plasma [3]: 0.050

SMILES: CCOc1cc(CC(=O)N[C@@H](CC(C)C)c2ccccc2N2CCCCC2)ccc1C(=O)O [Repaglinide]
IC50 (CYP26A1; [8]): 7730 ± 2690 nM | IC50 (CYP26B1; CYP26B1 IC50, tazarotenic acid): 610 ± 250 nM | Cmax,u [1]: 2.60 nM | IC50 (CYP2C8; [7]): 11100 nM | Cmax [2]: 104 nM | fu,plasma [3]: 0.026

SMILES: CC(C)c1nc(CN(C)C(=O)N[C@H](C(=O)N[C@@H](Cc2ccccc2)C[C@H](O)[C@H](Cc2ccccc2)NC(=O)OCc2cncs2)C(C)C)cs1 [Ritonavir]
Cmax,u [1]: 150 nM | Cmax [2]: 15300 nM

SMILES: CN(CCOc1ccc(CC2SC(=O)NC2=O)cc1)c1ccccn1 (stereo not drawn) [Rosiglitazone]
IC50 (CYP26A1; [8]): 11900 ± 1020 nM | IC50 (CYP26B1; CYP26B1 IC50, tazarotenic acid): 8470 ± 6640 nM | Cmax,u [1]: 3.40 nM | IC50 (CYP2C8; [6]): 10800 ± 3100 nM | Cmax [2]: 1670 nM | fu,plasma [3]: 0.002

SMILES: CCC(CC)C(c1ccc(Nc2nc3ccccc3s2)cc1)n1cncn1 (stereo not drawn) [Talarazole]
IC50 (CYP26A1; [4]): 20 ± 10 nM | IC50 (CYP26B1; [5]): 1 ± 1 nM

More lines, now with the values ahead:

IC50 (CYP26A1; [4]): 2890 ± 240 nM | IC50 (CYP26B1; [5]): 9210 ± 830 nM
SMILES: CC1(C)CCC(C)(C)c2cc(NC(=O)c3ccc(C(=O)O)cc3)ccc21 [AM80]

IC50 (CYP26A1; [4]): 1600 ± 740 nM | IC50 (CYP26B1; [5]): 3450 ± 2800 nM
SMILES: CC1(C)CCC(C)(C)c2cc(C#Cc3ccc(C(=O)O)cc3)ccc21 [EC23]

IC50 (CYP26A1; [4]): 810 ± 340 nM | IC50 (CYP26B1; [5]): 6860 ± 460 nM
SMILES: CC1(C)CCC(C)(C)c2cc(C3(c4ccc(C(=O)O)cc4)OCCO3)ccc21 [SR11237]
